Test results taken from patent US20100029620A1, “SUBSTITUTED TRIAZOLINE, TETRAZOLONE AND IMIDAZOLONE DERIVATIVES FOR USE AS A MEDICINE” (JANSSEN PHARMACEUTICA N.V., priority 2004, published 2010).

Key:
[1] = target: T1, human adrenergic-α2C receptor (Homo sapiens, UniProt P18825); assay: Radioligand binding experiment for α2C-adrenoceptor ([3H]-raulwolscine competition, CHO cell membranes); settings: [3H]raulwolscine 1 nM, membranes of CHO cells transfected with human α2C receptor; read-out: pIC50 α2C (converted)
T1 construct: expressed in transfected cells; membrane preparation
T1 sequence (P18825 1-462): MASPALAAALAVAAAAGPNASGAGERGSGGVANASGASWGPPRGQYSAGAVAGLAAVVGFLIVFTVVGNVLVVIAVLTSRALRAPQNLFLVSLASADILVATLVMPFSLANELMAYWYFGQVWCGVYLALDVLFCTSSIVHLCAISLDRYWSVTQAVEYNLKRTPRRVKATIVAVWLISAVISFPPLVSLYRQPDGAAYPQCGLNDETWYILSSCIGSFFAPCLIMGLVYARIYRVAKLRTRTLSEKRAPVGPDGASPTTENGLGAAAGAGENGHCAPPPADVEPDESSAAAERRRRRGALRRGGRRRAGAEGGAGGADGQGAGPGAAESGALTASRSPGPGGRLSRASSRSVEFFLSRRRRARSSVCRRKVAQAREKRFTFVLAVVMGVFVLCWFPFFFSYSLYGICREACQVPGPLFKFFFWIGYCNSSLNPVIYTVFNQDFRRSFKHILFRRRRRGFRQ
Method: (§1) The interaction of the compounds of Formula (I) with α2C-adrenoceptor receptors was assessed in in vitro radioligand binding experiments. In general, a low concentration of a radioligand with a high binding affinity for a particular receptor or transporter is incubated with a sample of a tissue preparation enriched in a particular receptor or transporter or with a preparation of cells expressing cloned human receptors in a buffered medium. During the incubation, the radioligand binds to the receptor or transporter. When equilibrium of binding is reached, the receptor bound radioactivity is separated from the non-bound radioactivity, and the receptor- or transporter-bound activity is counted. The interaction of the test compounds with the receptor is assessed in competition binding experiments. Various concentrations of the test compound are added to the incubation mixture containing the receptor- or transporter preparation and the radioligand. The test compound in proportion to its binding affinity and its concentration inhibits binding of the radioligand. The radioligand used for […] receptor binding was [^3H]-raulwolscine.
(§2) CHO cells, stabile transfected with human adrenergic-α2A-, -α2B or α2C receptor cDNA, were cultured in Dulbecco's Modified Eagle's Medium (DMEM)/Nutrient mixture Ham's F12 (ratio 1:1)(Gibco, Gent-Belgium) supplemented with 10% heat inactivated fetal calf serum (Life Technologies, Merelbeke-Belgium) and antibiotics (100 IU/ml penicillin G, 100 μg/ml streptomycin sulphate, 110 μg/ml pyruvic acid and 100 μg/ml L-glutamine). One day before collection, cells were induced with 5 mM sodiumbutyrate. Upon 80-90% of confluence, cells were scraped in phosphate buffered saline without Ca^2+ and Mg^2+ and collected by centrifugation at 1500×g for 10 min. The cells were homogenised in Tris-HCl 50 mM using an Ultraturrax homogenizer and centrifuged for 10 min at 23,500×g. The pellet was washed once by resuspension and rehomogenization and the final pellet was resuspended in Tris-HCl, divided in 1 ml aliquots and stored at −70° C.
(§3) Membranes were thawed and re-homogenized in incubation buffer (glycylglycine 25 mM, pH 8.0). In a total volume of 500 μl, 2-10 μg protein was incubated with [^3H]raulwolscine (NET-722) (New England Nuclear, USA) (1 nM final concentration) with or without competitor for 60 min at 25° C. followed by rapid filtration over GF/B filter using a Filtermate196 harvester (Packard, Meriden, Conn.). Filters were rinsed extensively with ice-cold rinsing buffer (Tris-HCl 50 mM pH 7.4). Filter-bound radioactivity was determined by scintillation counting in a Topcount (Packard, Meriden, CT) and results were expressed as counts per minute (cpm). Non-specific binding was determined in the presence of 1 μM oxymetazoline for hα2A- and hα2B receptors and 1 μM spiroxatrine for hα2C receptors.
(§4) Data from assays in the presence of compound were calculated as a percentage of total binding measured in the absence of test compound. Inhibition curves, plotting percent of total binding versus the log value of the concentration of the test compound, were automatically generated, and sigmoidal inhibition curves were fitted using non-linear regression. The pIC50 values of test compounds were derived from individual curves.

[2] = target: T2, human adrenergic-α2A receptor (Homo sapiens, UniProt P08913); assay: Radioligand binding experiment for α2A-adrenoceptor ([3H]-raulwolscine competition, CHO cell membranes); settings: [3H]raulwolscine 1 nM, membranes of CHO cells transfected with human α2A receptor; read-out: pIC50 α2A (converted)
T2 construct: expressed in transfected cells; membrane preparation
T2 sequence (P08913 1-465): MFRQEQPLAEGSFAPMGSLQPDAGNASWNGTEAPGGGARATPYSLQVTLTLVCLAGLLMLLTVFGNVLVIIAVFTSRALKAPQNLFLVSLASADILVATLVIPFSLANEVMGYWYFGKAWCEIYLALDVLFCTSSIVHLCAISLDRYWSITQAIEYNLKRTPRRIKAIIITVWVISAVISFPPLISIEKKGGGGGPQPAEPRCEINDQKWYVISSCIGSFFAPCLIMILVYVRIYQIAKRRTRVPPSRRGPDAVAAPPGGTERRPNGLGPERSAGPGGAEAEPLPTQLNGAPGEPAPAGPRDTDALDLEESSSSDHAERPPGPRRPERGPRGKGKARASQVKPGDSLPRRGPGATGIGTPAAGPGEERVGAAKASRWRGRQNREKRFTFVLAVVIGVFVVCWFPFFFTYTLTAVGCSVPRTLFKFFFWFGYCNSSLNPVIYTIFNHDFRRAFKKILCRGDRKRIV
Method: as §1, §2, §3, §4

[3] = target: T3, human adrenergic-α2B receptor (Homo sapiens, UniProt P18089); assay: Radioligand binding experiment for α2B-adrenoceptor ([3H]-raulwolscine competition, CHO cell membranes); settings: [3H]raulwolscine 1 nM, membranes of CHO cells transfected with human α2B receptor; read-out: pIC50 α2B (converted)
T3 construct: expressed in transfected cells; membrane preparation
T3 sequence (P18089 1-450): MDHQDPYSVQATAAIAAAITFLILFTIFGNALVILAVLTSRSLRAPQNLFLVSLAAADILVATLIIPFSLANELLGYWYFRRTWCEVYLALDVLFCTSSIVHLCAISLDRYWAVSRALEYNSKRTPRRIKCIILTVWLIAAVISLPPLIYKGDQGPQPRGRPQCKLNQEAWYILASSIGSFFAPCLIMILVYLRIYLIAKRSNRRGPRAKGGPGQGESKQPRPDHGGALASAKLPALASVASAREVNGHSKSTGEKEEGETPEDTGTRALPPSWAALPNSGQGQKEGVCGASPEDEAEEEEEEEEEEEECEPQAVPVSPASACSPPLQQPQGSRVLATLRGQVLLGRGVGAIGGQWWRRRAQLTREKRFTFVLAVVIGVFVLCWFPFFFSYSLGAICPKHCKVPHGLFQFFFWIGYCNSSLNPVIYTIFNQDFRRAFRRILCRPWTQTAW
Method: as §1, §2, §3, §4

Compound | IC50 [1] | IC50 [2] | IC50 [3]
CN1CCCN(Cc2ccc(-n3cnn(CCNCCOc4ccccc4)c3=O)cc2)CC1 [compound 13] | 1 nM | 63.1 nM | 63.1 nM
O=c1n(-c2ccc(CNCCN3CCCCC3)cc2)cnn1CCNCCOc1ccccc1 [compound 95] | 1.58 nM | 15.8 nM | 126 nM
O=c1n(-c2ccc3c(c2)CCN(Cc2ccc(F)cc2)C3)cnn1CCNCCOc1ccccc1 [compound 99] | 10 nM | 251 nM | 200 nM
CN1CCCN(Cc2ccc(-n3cnn(CC4CCN(CCOc5ccccc5)CC4)c3=O)cc2)CC1 [compound 61] | 1.26 nM | 63.1 nM | 10 nM
O=c1n(-c2ccc(CN3CCC(O)CC3)cc2)cnn1CCNCCOc1ccccc1 [compound 18] | 1.58 nM | 50.1 nM | 126 nM
O=c1n(-c2ccc3c(c2)CCN(CC2CCCCC2)C3)cnn1CCNCCOc1ccccc1 [compound 98] | 20 nM | 501 nM | 251 nM
C/C(=C\c1ccccc1)CN1CCC(n2cnn(-c3ccc(CN)cc3)c2=O)CC1 [compound 33] | 15.8 nM | 15.8 nM | 63.1 nM
O=c1n(-c2ccc(CN3CCOCC3)cc2)cnn1CCNCCOc1ccccc1 [compound 23] | 3.16 nM | 158 nM | 251 nM
O=c1n(CCN2CCOCC2)cnn1CC1CCN(CCOc2ccccc2)CC1 [compound 71] | 20 nM | 251 nM | 251 nM
O=c1n(-c2ccc(N3CCCCC3)cc2)cnn1CC1CCN(CCOc2ccccc2)CC1 [compound 63] | 5.01 nM | 158 nM | 31.6 nM
CC(NCCOc1ccccc1)C(C)n1ncn(-c2ccc(N3CCN(c4ccc(O)cc4)CC3)cc2)c1=O (racemic) [compound 5] | 10 nM | 501 nM | 501 nM
O=c1n(-c2ccc(NCCN3CCOCC3)cc2)cnn1CC1CCN(CCOc2ccccc2)CC1 [compound 50] | 12.6 nM | 251 nM | 15.8 nM
O=C1c2ccccc2C(=O)N1CCCn1cnn(CC2CCN(CCOc3ccccc3)CC2)c1=O [compound 84] | 0.631 nM | 25.1 nM | 20 nM
C/C(=C\c1ccccc1)CN1CCC(n2ncn(-c3ccc(CN4C(=O)c5ccccc5C4=O)cc3)c2=O)CC1 [compound 109] | 2 nM | 31.6 nM | 39.8 nM
O=c1n(-c2ccc(CN3CCCC3)cc2)cnn1CCNCCOc1ccccc1 [compound 14] | 1 nM | 50.1 nM | 79.4 nM
O=c1n(CC2CCN(CCOc3ccccc3)CC2)cnn1CCN1CCOCC1 [compound 67] | 25.1 nM | 398 nM | 100 nM

Compound | IC50 [1] | IC50 [2] | IC50 [3]
O=c1n(CCNCCOc2ccccc2)cnn1-c1ccc(CN2CCOCC2)cc1 [compound 45] | 20 nM | 316 nM | 200 nM
CN(C)CCNc1ccc(-n2cnn(CCNCCOc3ccccc3)c2=O)cc1 [compound 86] | 1 nM | 39.8 nM | 31.6 nM
CCOC(=O)C1CCN(Cc2ccc(-n3cnn(CCNCCOc4ccccc4)c3=O)cc2)CC1 [compound 19] | 3.16 nM | 63.1 nM | 251 nM
O=c1n(-c2ccc(CN3CCC(O)CC3)cc2)cnn1CC1CCN(CCOc2ccccc2)CC1 [compound 65] | 1.26 nM | 79.4 nM | 20 nM
CN1CCN(c2ccc(-n3cnn(CC4CCN(CCOc5ccccc5)CC4)c3=O)cc2)CC1 [compound 51] | 7.94 nM | 158 nM | 7.94 nM
O=c1n(-c2ccc(NCCN3CCCC3)cc2)cnn1CCNCCOc1ccccc1 [compound 88] | 2 nM | 39.8 nM | 39.8 nM
O=c1n(-c2ccc(CN3CCOCC3)cc2)cnn1CC1CCN(CCOc2ccccc2)CC1 [compound 73] | 1.58 nM | 158 nM | 39.8 nM
CN(CCNc1ccc(-n2cnn(CC3CCN(CCOc4ccccc4)CC3)c2=O)cc1)Cc1ccccc1 [compound 43] | 1.58 nM | 25.1 nM | 6.31 nM
O=c1n(-c2ccc3c(c2)CCN(CCN2CCCC2)C3)cnn1CCNCCOc1ccccc1 [compound 102] | 3.16 nM | 79.4 nM | 251 nM
C/C(=C\c1ccccc1)CN1CCC(n2cnn(CCN(C)CCOc3ccccc3)c2=O)CC1 [compound 30] | 15.8 nM | 398 nM | 200 nM
CC(C)N1CCN(c2ccc(-n3cnn(CC4CCN(CCOc5ccccc5)CC4)c3=O)cc2)CC1 [compound 53] | 5.01 nM | 100 nM | 3.98 nM
O=c1n(-c2ccc(NCc3ccc(F)cc3)cc2)cnn1CC1CCN(CCOc2ccccc2)CC1 [compound 48] | 3.16 nM | 200 nM | 25.1 nM
O=c1n(-c2ccc(N3CCN(Cc4ccccc4)CC3)cc2)cnn1CC1CCN(CCOc2ccccc2)CC1 [compound 54] | 15.8 nM | 158 nM | 31.6 nM
CN1CCCN(c2ccc(-n3cnn(CC4CCN(CCOc5ccccc5)CC4)c3=O)cc2)CC1 [compound 60] | 2 nM | 39.8 nM | 5.01 nM
O=c1n(-c2ccc(N3CCN(Cc4ccccc4)CC3)cc2)cnn1CCNCCOc1ccccc1 [compound 3] | 15.8 nM | 398 nM | 251 nM
CC(=O)N1CCc2cc(-n3cnn(CCNCCOc4ccccc4)c3=O)ccc2C1 [compound 100] | 10 nM | 631 nM | 398 nM
